Test results published in patent EP0170121A1, “2-Hydroxy-3-aryloxypropyl or 2-hydroxy-2-benzofuranyl ethyl tertiary amine having an anti-hyperglycaemic and/or anti-obesity activity” (BEECHAM GROUP PLC, priority 1984, dated 1986).
Where a name gives a salt, the structure may show the parent alone.

Key:
Isolated Rat Atria = experiment: Effect of compounds on isolated rat atria (rate of right atrium, tension of left atrium); format: cell-based, Sprague-Dawley male rats; details: Krebs solution 32°C, up to 3x10-^5M; for effect on tension (electrically paced left atrium): isolated rat left atrium; for effect on rate (spontaneously beating right atrium): isolated rat right atrium
Description: Sprague-Dawley male rats (300-400 g) are killed and the right and left atria dissected out independently and mounted on a combined tissue holder/electrode. The tissues are then immersed in a glass bath containing Krebs solution maintained at 32 °C. The rate of the spontaneously beating right atrium (via an isometric tranducer and a ratemeter) and the tension of the electrically paced left atrium (via an isometric transducer) are recorded on an M19 chart recorder.
After an initial stabilization period, the tissues are exposed to a maximal concentration of isoprenaline (10^-6M). The tissues are then washed several times until rate and tension return to baseline level. A dose-response curve to the test compound is then carried out.

Female BALB/c mice = experiment: Anti-obesity activity: weight of parametrial fat pads after 3 days of compound in the diet; format: in vivo; details: compound in diet for 3 days, dose differs per compound (Dose mg/kg diet), mean of 9 values
Description: Female BALB/c mice were trained to feed on powdered oxoid for 1 week. They were then housed in threes and the compound under study was added to the diet for 3 days. Food was removed at 09.00h and the mice were killed at 11.00h. The parametrial fat pads were weighed as pairs. The result is a mean of 9 values.

Male Sprague-Dawley rats = experiment: Effect on energy expenditure of rats (oxygen consumption, oral dosing); format: in vivo; details: deprived of food, p.o. in water, percentage of the rate of energy expenditure of the rats dosed with water, dose differs per compound (Dose mg/kg p.o.); for Mean Energy Expenditure (0-3h): 0-3h after dosing; for Mean Energy Expenditure (0-21h): 0-21h after dosing
Description: Male Sprague-Dawley rats each weighing between 170-200 g were deprived of food for 16 hours before, and during the experiment. Water was provided ad lib at all times. The compounds were administered orally in water to 3 or 4 rats. A further 4 rats were dosed orally with water. The rats were placed in boxes through which air was drawn and the oxygen content of the air leaving the boxes was measured. The energy expenditure of the rats was calculated for 3 hours and for 21 hours after dosing from the volume of air leaving the boxes and its oxygen content, following the principles described by J.B. de V. Weir, J. Physiol. (London) 109, 1-9 (1949). The results are expressed as a percentage of the rate of energy expenditure of the rats dosed with water.

Female CFLP mice = experiment: Hypoglycaemic activity: subcutaneous glucose load, area under blood glucose curve; format: in vivo; details: female CFLP mice fasted 24 hours; compound orally 30 minutes before glucose 1 g/kg s.c.; 2 hour period; versus control mice given water; dose differs per compound (Dose µmol/kg)
Description: Female CFLP mice, weighing approximately 25 g, were fasted for 24 hours prior to the study. The compounds under study were administered orally as an aqueous solution to each of 6 mice. 30 minutes later a blood sample (20 µl) was obtained from the tail for the analysis of blood glucose. Immediately after taking this blood sample, glucose (1 g/kg body weight) was administered subcutaneously to each mouse. 6 mice were given water as a control. Blood samples were then obtained from each mouse at 30 minute intervals for 120 minutes.
Compounds that produced a significant (p<0.05) reduction of blood glucose, compared with control mice given water, at any time interval, were considered active. The area under the blood glucose curve over the 2 hour period after the administration of the glucose was calculated for each compound and compared with the value for control animals.

Female CD1 mice = experiment: Effect on energy expenditure of mice (oxygen consumption, oral dosing); format: in vivo; details: p.o. in water, percentage of the rate of energy expenditure of the mice dosed with water, dose differs per compound (Dose mg/kg p.o.); for Mean Energy Expenditure (0-3h): 0-3h after dosing; for Mean Energy Expenditure (0-21h): 0-21h after dosing
Description: Female CD1 mice each weighing approximately 24 g were given food and water ad lib before and during the experiment. The compounds were dissolved in water and these solutions were administered orally to each of 12 mice. A further 12 mice were dosed orally with water. The mice were placed in groups of threes in boxes through which air was drawn and the oxygen content of the air leaving the boxes was measured. The energy expenditure of the mice was calculated for 3 and 21 hours after dosing from the volume of air leaving the boxes and its oxygen content, following the principles described by J.B. de V. Weir, J. Physiol. (London) 109, 1-9 (1949). The results are expressed as a percentage of the rate of energy expenditure of the mice dosed with water.

**Q.** How did the “effect on tension (electrically paced left atrium)” value (Isolated Rat Atria) turn out when `COC(=O)c1ccc(C[C@@H](C)N(C[C@H](O)COc2ccccc2)C[C@H](O)c2ccccc2)cc1` [Example 4, Methyl 4-[(R)-2-[N-[(R)-2-hydroxy-2-phenethyl]-N-[(S)-2-hydroxy-3-phenoxypropyl]amino]propyl]benzoate, hydrochloride, monohydrate] was run?
**A.** Its value is “no effect”.

**Q.** And the “effect on rate (spontaneously beating right atrium)” value (Isolated Rat Atria)?
**A.** The value was “no effect”.

**Q.** And the “Percentage reduction in weight of parametrial fat pads compared with controls” value (“Percentage reduction in weight” below) (Female BALB/c mice)?
**A.** The value was 25 Percentage.

**Q.** What about the “Mean Energy Expenditure (0-3h)” value (Male Sprague-Dawley rats) of the same compound?
**A.** The value was 110 percentage.

**Q.** What about the “Mean Energy Expenditure (0-21h)” value (Male Sprague-Dawley rats) of the same compound?
**A.** The value was 119 percentage.

**Q.** What about the “% Reduction in Area under Blood Glucose Curve” value (“% Reduction in Area” below) (Female CFLP mice) of the same compound?
**A.** The value was 12%.

**Q.** What about the “Mean Energy Expenditure (0-3h)” value (Female CD1 mice) of the same compound?
**A.** Its value is 145 percentage.

**Q.** And the “Mean Energy Expenditure (0-21h)” value (Female CD1 mice)?
**A.** The value was 120 percentage.

**Q.** Which results are given for `CC(Cc1ccc(OCC(N)=O)cc1)N(CC(O)COc1ccccc1)CC(O)c1cccc(Cl)c1.Cl` (stereo not drawn) [Example 8, 4-[2-[N-[2-(3-Chlorophenyl)-2-hydroxyethyl]-N-[2-hydroxy-3-phenoxypropyl]amino]propyl]phenoxyacetamide, hydrochloride]?
**A.** effect on tension (electrically paced left atrium) (Isolated Rat Atria): no effect; effect on rate (spontaneously beating right atrium) (Isolated Rat Atria): no effect; Percentage reduction in weight of parametrial fat pads compared with controls (Female BALB/c mice): 39 Percentage; % Reduction in Area under Blood Glucose Curve (Female CFLP mice): 50%; Mean Energy Expenditure (0-3h) (Female CD1 mice): 158 percentage; Mean Energy Expenditure (0-21h) (Female CD1 mice): 122 percentage

**Q.** What does the source list for `COC(=O)c1ccc(CC(C)N(CC(O)COc2ccccc2)CC(O)c2ccc(O)c(CO)c2)cc1` (stereo not drawn) [Example 9, Methyl 4-[2-[N-[2-hydroxy-2-[4-hydroxy-3-hydroxymethylphenyl]ethyl]-N-[2-hydroxy-3-phenoxypropyl]amino]propyl] benzoate]?
**A.** Percentage reduction in weight of parametrial fat pads compared with controls (Female BALB/c mice): 13 Percentage; % Reduction in Area under Blood Glucose Curve (Female CFLP mice): 34%; Mean Energy Expenditure (0-3h) (Female CD1 mice): 111 percentage; Mean Energy Expenditure (0-21h) (Female CD1 mice): 106 percentage

**Q.** How did the “Percentage reduction in weight” value (Female BALB/c mice) turn out when `COC(=O)COc1ccc(CC(C)N(CC(O)COc2ccc(CC(N)=O)cc2)CC(O)c2cccc(Cl)c2)cc1` (stereo not drawn) [Example 11, Methyl 4-[2-[N-[2-(3-chlorophenyl)-2-hydroxyethyl]-N-[2-hydroxy-3-(4-carboxamidomethyl)phenoxypropyl]amino]propyl] phenoxyacetate, hydrochloride] was run?
**A.** The value was 16 Percentage.

**Q.** What about the “Mean Energy Expenditure (0-3h)” value (Male Sprague-Dawley rats) of the same compound?
**A.** Its value is 136 percentage.

**Q.** What about the “Mean Energy Expenditure (0-21h)” value (Male Sprague-Dawley rats) of the same compound?
**A.** The value was 111 percentage.

**Q.** And the “% Reduction in Area” value (Female CFLP mice)?
**A.** The value was 57%.

**Q.** And the “Mean Energy Expenditure (0-3h)” value (Female CD1 mice)?
**A.** Its value is 120 percentage.

**Q.** What about the “Mean Energy Expenditure (0-21h)” value (Female CD1 mice) of the same compound?
**A.** The value was 112 percentage.

**Q.** `CCOC(=O)COc1ccc(C[C@@H](C)N(C[C@H](O)COc2ccccc2)C[C@H](O)c2ccccc2)cc1` [Example 15, Ethyl 4-[(R)-2-[N-[(R)-2-hydroxy-2-phenethyl]-N-[(S)-2-hydroxy-3-phenoxypropyl]amino]propyl]phenoxyacetate, hydrochloride] was tested. Which “effect on tension (electrically paced left atrium)” value (Isolated Rat Atria) did it give?
**A.** Its value is “no effect”.

**Q.** What about the “effect on rate (spontaneously beating right atrium)” value (Isolated Rat Atria) of the same compound?
**A.** Its value is “no effect”.

**Q.** What about the “Percentage reduction in weight” value (Female BALB/c mice) of the same compound?
**A.** Its value is 32 Percentage.

**Q.** What about the “Mean Energy Expenditure (0-3h)” value (Male Sprague-Dawley rats) of the same compound?
**A.** The value was 135 percentage.

**Q.** What about the “Mean Energy Expenditure (0-21h)” value (Male Sprague-Dawley rats) of the same compound?
**A.** Its value is 118 percentage.

**Q.** And the “% Reduction in Area” value (Female CFLP mice)?
**A.** The value was 42%.

**Q.** What about the “Mean Energy Expenditure (0-3h)” value (Female CD1 mice) of the same compound?
**A.** The value was 144 percentage.

**Q.** And the “Mean Energy Expenditure (0-21h)” value (Female CD1 mice)?
**A.** Its value is 120 percentage.

**Q.** What does the source list for `CCOC(=O)COc1ccc(C[C@@H](C)N(C[C@H](O)COc2ccccc2)C[C@H](O)c2cccc(Cl)c2)cc1` [Example 18, Ethyl 4-[(R)-2-[N-[(R)-2-(3-chlorophenyl)-2-hydroxyethyl]-N-[(S)-2-hydroxy-3-phenoxypropyl]amino]propyl]phenoxyacetate, hemifumarate]?
**A.** Percentage reduction in weight of parametrial fat pads compared with controls (Female BALB/c mice): 21 Percentage; Mean Energy Expenditure (0-3h) (Male Sprague-Dawley rats): 126 percentage; Mean Energy Expenditure (0-21h) (Male Sprague-Dawley rats): 109 percentage; % Reduction in Area under Blood Glucose Curve (Female CFLP mice): 45%

**Q.** Which “Percentage reduction in weight” value (Female BALB/c mice) does the source give for `C[C@H](Cc1ccc(OCCN)cc1)N(C[C@H](O)COc1ccccc1)C[C@H](O)c1ccccc1` [Example 20, 4-[(R)-2-[N-[(R)-2-Hydroxy-2-phenethyl]-N-[(S)-2-hydrpxy-3-phenoxypropyl]amino]propyl]phenoxyethylamine, dihydrochloride, hydrate] here?
**A.** Its value is 15 Percentage.

**Q.** And the “Mean Energy Expenditure (0-3h)” value (Male Sprague-Dawley rats)?
**A.** The value was 112 percentage.

**Q.** What about the “Mean Energy Expenditure (0-21h)” value (Male Sprague-Dawley rats) of the same compound?
**A.** The value was 110 percentage.

**Q.** And the “% Reduction in Area” value (Female CFLP mice)?
**A.** The value was 40%.

**Q.** What about the “Mean Energy Expenditure (0-3h)” value (Female CD1 mice) of the same compound?
**A.** The value was 146 percentage.

**Q.** What about the “Mean Energy Expenditure (0-21h)” value (Female CD1 mice) of the same compound?
**A.** The value was 120 percentage.
